Data from patent publication US20170312290A1, “FUNCTIONALIZED MORPHOLINYL ANTHRACYCLINE DERIVATIVES” (Nerviano Medical Sciences S.R.L., priority 2014, published 2017).

Legend:
Assay in all cases: In vitro cell proliferation assay (CellTiter-Glo)
Format in all cases: cell-based
HELA = details: Homo sapiens, HELA cells, 72 h treatment, read-out: Cell Line IC50 HELA
Experimental: (§1) Human cancer cell lines were seeded in white 384 well-plates (1250 cells/well) in complete medium (RPM11640 or E-MEM plus 10% Fetal bovine serum) and treated with compounds dissolved in 0.1% DMSO, 24 h after seeding. The cells were incubated at 37° C. and 5% CO2 and after 72 h the plates were processed using CellTiter-Glo assay (Promega) following the manufacturer's instruction.
(§2) CellTiter-Glo is a homogenous method based on the quantification of the ATP present, an indicator of metabolically active cells. ATP is quantified using a system based on luciferase and D-luciferin resulting into light generation.
(§3) Briefly, 25 μL/well of reagent solution are added to each well and, after 5 minutes shaking, microplates are read by a luminometer. The luminescent signal is proportional to the number of live cells present in culture.
(§4) Dose-response curves were generated by sigmoid function interpolation of 8 concentration points and the antiproliferative activity of compounds was reported as the half-maximal inhibitory concentration (IC50).

HCC1954 = details: Homo sapiens, HCC1954 cells, 72 h treatment, read-out: Cell Line IC50 HCC1954
Experimental: as §1, §2, §3, §4

MCF7 = details: Homo sapiens, MCF7 cells, 72 h treatment, read-out: Cell Line IC50 MCF7
Experimental: as §1, §2, §3, §4

A2780 = details: Homo sapiens, A2780 cells, 72 h treatment, read-out: Cell Line IC50 A2780
Experimental: as §1, §2, §3, §4

MDA-MB-468 = details: Homo sapiens, MDA-MB-468 cells, 72 h treatment, read-out: Cell Line IC50 MDA-MB-468
Experimental: as §1, §2, §3, §4

HCT-116 = details: Homo sapiens, HCT-116 cells, 72 h treatment, read-out: Cell Line IC50 HCT-116
Experimental: as §1, §2, §3, §4

MDA-MB_213 = details: Homo sapiens, MDA-MB_213 cells, 72 h treatment, read-out: Cell Line IC50 MDA-MB_213
Experimental: as §1, §2, §3, §4

Structure (SMILES)	IC50 (HELA) [nM]	IC50 (HCC1954) [nM]	IC50 (MCF7) [nM]	IC50 (A2780) [nM]	IC50 (MDA-MB-468) [nM]	IC50 (HCT-116) [nM]	IC50 (MDA-MB_213) [nM]
CO[C@H]1OCCN2[C@@H]1O[C@@H]1[C@H](C)O[C@@H](O[C@H]3C[C@](O)(C(C)=O)Cc4c(O)c5c(c(O)c43)C(=O)c3c(F)cccc3C5=O)C[C@@H]12 [Comp. 21, (8S,10S)-8-acetyl-1-fluoro-6,8,11-trihydroxy-10-{[(1S,3R,4aS,9aR,10aS)-9-methoxy-1-methyloctahydro-1H-pyrano[4′,3′:4,5][1,3]oxazolo[2,3-c][1,4]oxazin-3-yl]oxy}-7,8,9,10-tetrahydrotetracene-5,12-dione]	0.349	0.377	3.52	0.032	0.072	0.146	0.306
CO[C@H]1OCCN2[C@@H]1O[C@@H]1[C@H](C)O[C@@H](O[C@H]3C[C@](O)(C(C)=O)Cc4c(O)c5c(c(O)c43)C(=O)c3c(N)cccc3C5=O)C[C@@H]12 [Comp. 22, (8S,10S)-8-acetyl-1-amino-6,8,11-trihydroxy-10-{[(1S,3R,4aS,9S,9aR,10aS)-9-methoxy-1-methyloctahydro-1H-pyrano[4′,3′:4,5][1,3]oxazolo[2,3-c][1,4]oxazin-3-yl]oxy}-7,8,9,10-tetrahydrotetracene-5,12-dione]	0.7	0.549	0.668	0.044	0.313	0.2	0.538
CO[C@H]1OCCN2[C@@H]1O[C@@H]1[C@H](C)OC(O[C@H]3C[C@](O)(C(C)=O)Cc4c(O)c5c(c(O)c43)C(=O)c3c(NC(=O)[C@H](C)N)cccc3C5=O)C[C@@H]12 (some centres unmarked) [Comp. 26]	3.5	4.8	3.8	1.2	2.3	1.1	–
